Laboratory results reported in patent publication US6011060A, “Chiral phenyldihydrofuranones as PDE-IV inhibitors” (Schering Aktiengesellschaft, priority 1996, dated 2000).

biological target: radiolabeled Rolipram of rat brain homogenates; assay: displacement of radiolabeled Rolipram in rat brain homogenates, in vitro (Eur. J. Pharmacol. 127, 105-115 (1986)); type: binding; details: 3H-rolipram tracer, IC50 converted: Ki = IC50/[1+(L/KD)]
Procedure: The action on the central nervous system is determined in vitro by measuring the displacement capacity of radiolabeled Rolipram of rat brain homogenates (Eur. J. Pharmacol., Vol. 127, 105-115 (1986)). The IC50 values (that concentration in which 50% inhibiting action occurs) were converted into inhibition constant Ki, which is calculated according to the formula below: […]
in which L means the concentration of the radioactive tracer and KD means the dissociation constant of the ^3 H-rolipram bond, which is determined separately.

First: COc1ccc(C2(C)CCC(=O)O2)cc1OC1CCC1 (racemic) [cyclobutyl, Racemate, (R,S)-5-(3-cyclobutyloxy-4-methoxyphenyl)-5-methyl-dihydro-2-furanone]
Second: COc1ccc([C@@]2(C)CCC(=O)O2)cc1OC1CCC1 [cyclobutyl, (R)-(+)-enantiomer, (R)-(+)-5-(3-cyclobutyloxy-4-methoxyphenyl)-5-methyl-dihydro-2-furanone]
The Ki of the first is 5-fold lower: 0.38 nM for the first, 1.9 nM for the second.

Going from COc1ccc(C2(C)CCC(=O)O2)cc1OC1CCCC1 (racemic) [cyclopentyl, Racemate, (R,S)-5-(3-cyclopentyloxy-4-methoxyphenyl)-5-methyl-dihydro-2-furanone] to COc1ccc([C@@]2(C)CCC(=O)O2)cc1OC1CCCC1 [cyclopentyl, (R)-(+)-enantiomer, (R)-(+)-5-(3-cyclopentyloxy-4-methoxyphenyl)-5-methyl-dihydro-2-furanone], the Ki rises from 0.5 nM to 2.8 nM (5.6-fold). The first binds more tightly here.

Compared with COc1ccc(C2(C)CCC(=O)O2)cc1OCC1CC1 (racemic) [cyclopropylmethyl, Racemate, (R,S)-5-(3-cyclopropylmethoxy-4-methoxyphenyl)-5-methyl-dihydro-2-furanone], COc1ccc([C@@]2(C)CCC(=O)O2)cc1OCC1CC1 [cyclopropylmethyl, (R)-(+)-enantiomer, (R)-(+)-5-(3-cyclopropylmethoxy-4-methoxyphenyl)-5-methyl-dihydro-2-furanone] is 10-fold higher in Ki: 0.21 nM for the first, 2.2 nM for the second.

Compared with COc1ccc(C2(C)CCC(=O)O2)cc1OCC(C)C (racemic) [isobutyl, Racemate, (R,S)-5-(3-isobutyloxy-4-methoxyphenyl)-5-methyl-dihydro-2-furanone], COc1ccc([C@@]2(C)CCC(=O)O2)cc1OCC(C)C [isobutyl, (R)-(+)-enantiomer, (R)-(+)-5-(3-isobutyloxy-4-methoxyphenyl)-5-methyl-dihydro-2-furanone] is 4.8-fold higher in Ki: 0.48 nM for the first, 2.3 nM for the second.

Compared with CCCOc1cc(C2(C)CCC(=O)O2)ccc1OC (racemic) [propyl, Racemate, (R,S)-5-(4-methoxy-3-propoxyphenyl)-5-methyl-dihydro-2-furanone], CCCOc1cc([C@@]2(C)CCC(=O)O2)ccc1OC [propyl, (R)-(+)-enantiomer, (R)-(+)-5-(4-methoxy-3-propoxyphenyl)-5-methyl-dihydro-2-furanone] is 9.9-fold higher in Ki: 0.74 nM for the first, 7.3 nM for the second. The first binds more tightly here.

COc1ccc([C@]2(C)CCC(=O)O2)cc1OC1CCC1 [cyclobutyl, (S)-(-)-enantiomer, (S)-(-)-5-(3-cyclobutyloxy-4-methoxyphenyl)-5-methyl-dihydro-2-furanone] and COc1ccc([C@]2(C)CCC(=O)O2)cc1OC1CCCC1 [cyclopentyl, (S)-(-)-enantiomer, (S)-(-)-5-(3-cyclopentyloxy-4-methoxyphenyl)-5-methyl-dihydro-2-furanone] are within 1.5-fold of each other in Ki: 0.2 nM for the first, 0.28 nM for the second.

Compared with COc1ccc([C@]2(C)CCC(=O)O2)cc1OCC1CC1 [cyclopropylmethyl, (S)-(-)-enantiomer, (S)-(-)-5-(3-cyclopropylmethoxy-4-methoxyphenyl)-5-methyl-dihydro-2-furanone], CCCOc1cc([C@]2(C)CCC(=O)O2)ccc1OC [propyl, (S)-(-)-enantiomer, (S)-(-)-5-(4-methoxy-3-propoxyphenyl)-5-methyl-dihydro-2-furanone] is 3.6-fold higher in Ki: 0.13 nM for the first, 0.47 nM for the second.

With COc1ccc([C@]2(C)CCC(=O)O2)cc1OCC(C)C [isobutyl, (S)-(-)-enantiomer, (S)-(-)-5-(3-isobutyloxy-4-methoxyphenyl)-5-methyl-dihydro-2-furanone] the Ki was 0.25 nM.
